# Values joined by “and” are separate entries in the source; they are usually repeats but may differ in a detail not shown here. Equal values may be shown once.
# How the values were obtained:
# [1] = system: NIH3T3 cells stably expressing the mCherry-GFP-LC3 reporter; test: Macroautophagy activity, mCherry-GFP-LC3 reporter; type: cell-based, mouse
# Method: Cells were transduced with a lentiviral vector expressing mCherry-GFP-LC3[35], fixed and flux determined as the conversion of dual fluorescence puncta (autophagosomes) into only red fluorescent puncta (autolysosomes). Flux was also measured by immunoblot for LC3 in cells incubated for 6 h with 20 mM NH4Cl/100 μM leupeptin, by discounting the intensity of LC3 in non-treated cells from that in cells treated with the inhibitors.
# [2] = system: CMA network components in NIH3T3 cells; test: qPCR of CMA network components and CMA activation score; type: cell-based, mouse; set-up: LAMP2A mRNA level / HSP90AB1 mRNA level / HSP40 mRNA level / RAC1 mRNA level / AKT1 mRNA level / AKT2 mRNA level / CTSA mRNA level / NFATC1 mRNA level / HSC70 mRNA level / NCOR1 mRNA level / NFE2L2 mRNA level / RAB11A mRNA level / RARa mRNA level / HSP90AA1 mRNA level / EEF1A1 mRNA level / RICTOR mRNA level: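 fold of untreated cells after 20 µM for 24 h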; key to CMA activation score: weighted (LAMP-2A ×2), directed (±1) average of CMA network expression;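 for AKT1 mRNA level: fold of untreated cells after 20 µM for 24 h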;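 for AKT2 mRNA level: fold of untreated cells after 20 µM for 24 h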;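 for CTSA mRNA level: fold of untreated cells after 20 µM for 24 h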;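 for HSC70 mRNA level: fold of untreated cells after 20 µM for 24 h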;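 for HSP40 mRNA level: fold of untreated cells after 20 µM for 24 h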;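 for HSP90AA1 mRNA level: fold of untreated cells after 20 µM for 24 h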;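 for HSP90AB1 mRNA level: fold of untreated cells after 20 µM for 24 h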;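 for LAMP2A mRNA level: fold of untreated cells after 20 µM for 24 h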;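 for NCOR1 mRNA level: fold of untreated cells after 20 µM for 24 h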;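 for NFATC1 mRNA level: fold of untreated cells after 20 µM for 24 h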;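 for NFE2L2 mRNA level: fold of untreated cells after 20 µM for 24 h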;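 for PHLPP1 mRNA level: fold of untreated cells after 20 µM for 24 h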;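 for RAB11A mRNA level: fold of untreated cells after 20 µM for 24 h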;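 for RAC1 mRNA level: fold of untreated cells after 20 µM for 24 h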;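 for RARa mRNA level: fold of untreated cells after 20 µM for 24 h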
# Method: RNA was extracted from individual retinas or tissue sections (brain, liver). Total RNA from retinas was extracted using TRIzol Reagent (Invitrogen, # 15596-018), and reverse transcription was performed using the High-Capacity cDNA Reverse Transcription Kit (Applied Biosystems, # 4374966) according to the manufacturer’s instructions. Quantitative real-time PCR was performed in a Light Cycler 480 Instrument (Roche) with Taqman LightCycler 480 probes Master Mix (Roche, #4887301001) using Taqman assays (Life Technologies). For cells in culture, RNA was extracted using RNeasy Plus Mini Kit (Qiagen, #74034), and reverse transcription was performed using Superscript III (Invitrogen, #18080051). Quantitative RT-PCR analysis were performed using Power SYBR Green PCR Master Mix (Applied Biosystems, #4368708) on a StepOne Plus Real-Time PCR System (Applied Biosystems). Mm01184405_m1 probe (Thermofisher) was used for rhodopsin and the sequence of all the other probes used for qPCR is included in Supplementary Table 2.
# CMA index[14] was calculated using data set from[23]–[25]. Briefly, each element of the CMA network[13] has attributed a weight. As LAMP-2A is the rate-limiting component of CMA, it was given a weight of 2. Every other element received a weight of 1. Then, every element was attributed direction score that is +1 or −1 based on the known effect of a given element on CMA activity. The score was then calculated as the weighted/ directed average of expression counts of every element of the CMA network.
# [3] = system: primary human fibroblast expressing the KFERQ-PS-Dendra reporter; test: CMA activity, KFERQ-PS-Dendra reporter in primary human fibroblasts; type: cell-based; set-up: key to CMA activity, mean (Fig. S2c): puncta per cell
# Method: Cells were transduced with lentivirus carrying the KFERQ-PS-Dendra reporter as before. Cells were photoactivated by exposure to a 3.5 mA (current constant) light emitting diode (LED: Norlux, 405 nm) for 3 min and then plated in glass-bottom 96 well plates. At the desired times, cells were fixed with 4% PFA and imaged using high-content microscopy (Operetta system, Perkin Elmer). Images were quantified using the manufacturer’s software in a minimum of 1,200 cells in 9 independent fields per well. […] This was particularly important in the case of primary human cells where the efficiency of transduction was ~65%. To avoid confounding effects for drug-induced changes in cell volume or adherence to the plate that could bring a fraction of the cells per field outside of focus, we set a threshold to count only […] that have at least 1/10 of the average number of […] detected in the untreated wells for each cell type (3–4 puncta/cell in the case of NIH3T3 and N2a cells and 5 puncta/cell in primary human fibroblasts).
# [4] = c0 = 2 (axis unlabelled; ANOVA calls row factor Time)
# [5] = Fig. 2d (left), individual replicate values, one sample t test
smiles,measurement,setting,value
CC(=O)Nc1ccc(C2=Nc3ccc(Cl)cc3OC2)cc1 [CA77],effect on macroautophagy,"[1]; NIH3T3, MRT-sensitive proteolysis, LC3-II flux, mCherry-GFP-LC3 reporter",did not have the inhibitory effect on macroautophagy
same,APG (Fig. S3e),[1]; [4],3.899
same,AUT (Fig. S3e),[1]; [4],0.5811
same,AV (Fig. S3e),[1]; [4],4.481
same,APG (Fig. S3e),[1]; c0 = 5 (axis unlabelled),3.275
same,AUT (Fig. S3e),[1]; c0 = 5 (axis unlabelled),0.7542
same,AV (Fig. S3e),[1]; c0 = 5 (axis unlabelled),4.029
same,APG (Fig. S3e),[1]; c0 = 10 (axis unlabelled),2.43
same,AUT (Fig. S3e),[1]; c0 = 10 (axis unlabelled),3.694
same,AV (Fig. S3e),[1]; c0 = 10 (axis unlabelled),6.1244
same,APG (Fig. S3e),[1]; c0 = 15 (axis unlabelled),2.828
same,AUT (Fig. S3e),[1]; c0 = 15 (axis unlabelled),3.073
same,AV (Fig. S3e),[1]; c0 = 15 (axis unlabelled),5.901
same,APG (Fig. S3e),[1]; c0 = 20 (axis unlabelled),2.044
same,AUT (Fig. S3e),[1]; c0 = 20 (axis unlabelled),3.746
same,AV (Fig. S3e),[1]; c0 = 20 (axis unlabelled),5.79
same,APG (Fig. S3e),[1]; c0 = 25 (axis unlabelled),2.063
same,AUT (Fig. S3e),[1]; c0 = 25 (axis unlabelled),4.0642
same,AV (Fig. S3e),[1]; c0 = 25 (axis unlabelled),6.127
same,APG (Fig. S3e),[1]; c0 = 30 (axis unlabelled),2.895
same,AUT (Fig. S3e),[1]; c0 = 30 (axis unlabelled),3.5777
same,AV (Fig. S3e),[1]; c0 = 30 (axis unlabelled),6.473
same,APG (Fig. S3e),[1]; c0 = 40 (axis unlabelled),2.857
same,AUT (Fig. S3e),[1]; c0 = 40 (axis unlabelled),3.822
same,AV (Fig. S3e),[1]; c0 = 40 (axis unlabelled),6.679
same,APG (Fig. S3e),[1]; c0 = 50 (axis unlabelled),4.838
same,AUT (Fig. S3e),[1]; c0 = 50 (axis unlabelled),2.082
same,AV (Fig. S3e),[1]; c0 = 50 (axis unlabelled),6.9193
same,AKT1 mRNA level,[2]; [5],1.86 and 1.18 and 1.20 and 0.75 and 0.97 and 1.87 and 1.39
same,AKT2 mRNA level,[2]; [5],1.39 and 1.17 and 1.12 and 0.66 and 1.01 and 1.53 and 1.20
same,CTSA mRNA level,[2]; [5],1.67 and 1.46 and 1.22 and 0.88 and 1.08 and 1.45
same,EEF1A1 mRNA level,[2]; [5],1.15 and 1.98 and 1.39 and 1.19 and 1.55
same,HSC70 mRNA level,[2]; [5],1.44 and 1.49 and 1.28 and 0.82 and 1.24 and 1.57
same,HSP40 mRNA level,[2]; [5],0.73 and 0.99 and 0.82 and 0.53 and 0.77 and 1.06
same,HSP90AA1 mRNA level,[2]; [5],1.50 and 0.94 and 0.92 and 0.76 and 0.78 and 0.87 and 0.90
same,HSP90AB1 mRNA level,[2]; [5],1.21 and 0.89 and 0.79 and 0.62 and 0.81 and 0.82 and 0.83
same,LAMP2A mRNA level,[2]; [5],1.32 and 1.55 and 1.43 and 1.87 and 2.34 and 2.75 and 2.33
same,NCOR1 mRNA level,[2]; [5],2.35 and 1.24 and 0.55 and 0.97 and 2.06 and 1.85
same,NFATC1 mRNA level,[2]; [5],2.10 and 1.29 and 1.23 and 0.50 and 0.73 and 1.05 and 1.18
same,NFE2L2 mRNA level,[2]; [5],1.29 and 1.15 and 1.04 and 0.89 and 0.77 and 1.26
same,PHLPP1 mRNA level,[2]; [5],2.13 and 1.55 and 1.38 and 2.29 and 1.20 and 1.48 and 1.51
same,RAB11A mRNA level,[2]; [5],1.15 and 0.97 and 0.81 and 0.59 and 0.79 and 0.89 and 1.07
same,RAC1 mRNA level,[2]; [5],0.89 and 1.51 and 1.36 and 1.27 and 1.10 and 1.63 and 1.34
same,RARa mRNA level,[2]; [5],1.23 and 0.87 and 0.82 and 0.27 and 1.06 and 2.06 and 1.10
same,RICTOR mRNA level,[2]; [5],0.96 and 1.28 and 0.65 and 0.74 and 1.53 and 1.63
same,CMA activation score,"[2]; Fig. 2d (right), individual replicate values",0.1487 and -0.2323 and 0.1868 and 0.1591
same,predicted CMA score compared to AR7,"[2]; NIH3T3, 20μM for 24 h",higher
same,"CMA activity, mean (Fig. S2c)",[3]; concentration 0.02,27.1536
same,"CMA activity, mean (Fig. S2c)",[3]; concentration 0.2,22.1247
same,"CMA activity, mean (Fig. S2c)",[3]; concentration 2,23.6319
same,"CMA activity, mean (Fig. S2c)",[3]; concentration 5,30.8194
same,CMA activation in human cells,[3]; in words,efficiently activated CMA

# Reference: publication PMC9304322, “Targeting retinoic acid receptor alpha-corepressor interaction activates chaperone-mediated autophagy and protects against retinal degeneration” (Nature Communications, 2022)
